Measurements published in patent publication US5093134A, “Method of treating HIV infection using polyoxometallates” (Johnson Matthey Public Limited Company, priority 1989, dated 1992).
Where “and” joins values, the source holds several entries; their conditions need not be identical. Equal values may be shown once.

Columns and labels:
[1] = tested on: cells; conditions: in words; cited from earlier work
[2] = tested on: HIV-1 (HTLV-IIIB); test: microbe, parasite or virus in culture; assay type: cell-based; conditions: for Selectivity Index (SI), ratio of CD50 to ED50 / ED50: HIV-1, MT-4 cells; for ED50: 100 CCID50, 5 days, MTT
Method: (§1) The compounds were tested in a screen by the MTT method (J. Virol. Methods […]: 309-321 [1988]). MT-4 cells (2.5×10^4 /well) were infected with HIV-1 (HTLV-IIIB) or HIV-2 (LAV-2 ROD) at a concentration of 100 CCID50 and incubated in the presence of various concentrations of the test compounds, which were added immediately after infection with the virus. After 5 days culture at 37° C. in a CO2 incubator, the number of viable cells was assessed by the MTT (tetrazolium) method. […] The potential therapeutic usefulness was assessed by calculating a Selectivity Index (SI) corresponding to the ratio of CD50 to ED50.

[3] = tested on: MT-4 cells; test: in vitro
Method: as §1

[4] = in vitro; conditions: human, mt-4 cells
Method: as §1

[5] = tested on: HIV-2 (LAV-2 ROD); test: MTT screen of HIV-2 infected MT-4 cells (antiviral activity); assay type: cell-based; conditions: for ED50: 100 CCID50, 5 days, MTT
Method: as §1

[6] = tested on: herpes virus; conditions: in words; cited from earlier work
[7] = tested on: reverse transcriptase; conditions: in words; cited from earlier work
[8] = tested on: HIV; conditions: in words; cited from earlier work

Row | Compound | Selectivity Index (SI), ratio of CD50 to ED50 [2] | ED50 [2] [µg/mL] | Selectivity Index (SI), ratio of CD50 to ED50 [5] | ED50 [5] [µg/mL] | other results
1 | Cc1cn([C@H]2C[C@H](N=[N+]=[N-])[C@@H](CO)O2)c(=O)[nH]c1=O [AZT, reference compound] | 125 and > 125 | – | – | – | toxicity to cells [1]: high toxicity to cells; EC50 ([2]; Human immunodeficiency virus 1, IIIB, MT4, 120 h, read-out: ED50): < 8 nM; toxicity (in words) [3]: rather high toxicity; CC50 at 120 h [4]: > 1000 nM
2 | ((CH3)3 NH^+)5 [SiSn(CH3)W11 O39 ]yH2 O [Compound C] | 40 | 0.57 | 19 | 3.48 | –
3 | (C5 H5 NH^+)6 [SiCo(C5 H5 N)W11 O39 ]yH2 O [Compound A] | > 502 | 1.99 | > 415 | 2.41 | CD50 ([3]; human, mt-4 cells, 120 h): > 1000.0 µg/mL
4 | (C6 H11 NH3^+)6 [SiCo(C6 H11 NH2)W11 O39 ]yH2 O [Compound B] | 99 | 0.98 | 26 | 3.01 | –
5 | K5 BW12 O40 | – | – | – | – | activity against herpes virus [6]: activity against herpes virus
6 | K5 [BPt(OH2)W11 O39 ]yH2 O | 198 | 1.66 | 49 | 6.21 | –
7 | K5 [PCu(OH2)W11 O39 ]yH2 O | > 82 | 3.04 | > 68 | < 2.0 | –
8 | K5 [PNi(OH2)W11 O39 ]14H2 O | < 1 | > 250.0 | < 1 | > 250.0 | –
9 | K5 [SiGa(OH2)W11 O39 ]yH2 O | 100 | 1.06 | 14 | 6.19 | –
10 | K6 [BGa(OH2)W11 O39 ]yH2 O | 5151 | 0.12 | 298 | 1.62 | –
11 | K6 [BRh(OH2)W11 O39 ]14H2 O | 97 | 5.88 | 18 | 31.58 | –
12 | K6 [SiCo(OH2)W11 O39 ]yH2 O | > 52 | < 2.0 | > 15 | < 2.0 | –
13 | K6 [SiCu(OH2)W11 O39 ]yH2 O | > 84 | < 2.0 | > 125 | < 2.0 | –
14 | K6 [SiNi(OH2)W11 O39 ]15H2 O | 103 | 1.93 | 55 | 3.58 | CD50 ([3]; human, mt-4 cells, 120 h): 198.43 µg/mL
15 | K7 PW10 Ti2 O40 | – | – | – | – | activity against herpes virus [6]: activity against herpes virus
16 | K7 [BCo(OH2)W11 O39 ]yH2 O | 47 | 2.74 | < 1 | > 200.0 | –
17 | K7 [BCu(OH2)W11 O39 ]yH2 O | 32 | 3.51 | 62 | 2.56 | –
18 | K13 [Ce(SiW11 O39)2 ]26H2 O | > 2561 | 0.39 | > 6357 | 0.157 | CD50 ([3]; human, mt-4 cells, 120 h): > 1000.0 µg/mL
19 | NaSb9 W21 O86 [HPA-23, reference compound] | 3 | 2.8 | < 1 | > 4 | reverse transcriptase inhibition [7]: reverse transcriptase inhibitor; CD50 ([3]; HIV-1, MT-4 cells, 5 days, 37° C., MTT): 7.4 µg/mL; CD50 ([3]; HIV-2, MT-4 cells, 5 days, 37° C., MTT): 2.4 µg/mL
20 | silicotungstate acid [H4 SiW12 O40] | – | – | – | – | activity against HIV [8]: activity against HIV
